# From patent publication US7964628B2, “Fibrinogen receptor antagonists and their use” (Piramal Life Sciences Limited, priority 2003, dated 2011)
row,melting point,SMILES
1,175 to 177 °C,"CCCOc1cc(OCC(=O)OCC)ccc1C(=O)CN1Cc2cc(C(=N)NO)ccc2C1=O (hydrate or solvate) [Example 46, (4-{2-[5-(N-Hydroxycarbamimidoyl)-1-oxo-1,3-dihydro-isoindol-2-yl]-acetyl}-3-propoxy-phenoxy)-acetic acid ethyl ester]"
2,227 to 228 °C,"CCOC(=O)COc1cc(O)c(C(=O)CN2Cc3cc(C(=N)NO)ccc3C2=O)cc1Cl (hydrate or solvate) [Example 53, (2-Chloro-5-hydroxy-4-{2-[5-(N-hydroxycarbamimidoyl)-1-oxo-1,3-dihydro-isoindol-2-yl]-acetyl}-phenoxy)-acetic acid ethyl ester]"
3,214 to 215 °C,"CCOC(=O)COc1ccc(C(=O)CN2Cc3cc(C(=N)NO)ccc3C2=O)c(O)c1Cl (hydrate or solvate) [Example 54, (2-Chloro-3-hydroxy-4-{2-[5-(N-hydroxycarbamimidoyl)-1-oxo-1,3-dihydro-isoindol-2-yl]-acetyl}-phenoxy)-acetic acid ethyl ester]"
4,226 to 228 °C,"CCOC(=O)COc1ccc(C(=O)CN2Cc3cc(C(=N)NO)ccc3C2=O)c(O)c1C (hydrate or solvate) [Example 55, (3-Hydroxy-4-{2-[5-(N-hydroxycarbamimidoyl)-1-oxo-1,3-dihydro-isoindol-2-yl]-acetyl}-2-methyl-phenoxy)-acetic acid ethyl ester]"
5,200 °C,"Cc1c(OCC(=O)OCc2ccccc2)ccc(C(=O)CN2Cc3cc(C(=N)NO)ccc3C2=O)c1O (hydrate or solvate) [Example 56, (3-Hydroxy-4-{2-[5-(N-hydroxycarbamimidoyl)-1-oxo-1,3-dihydro-isoindol-2-yl]-acetyl}-2-methyl-phenoxy)-acetic acid benzyl ester]"
6,186 to 188 °C,"CCOC(=O)COc1cc(O)c(C(=O)CN2Cc3cc(C(=N)NO)ccc3C2=O)cc1OCC(=O)OCC (hydrate or solvate) [Example 65, (2-Ethoxycarbonylmethoxy-5-hydroxy-4-{2-[5-(N-hydroxycarbamimidoyl)-1-oxo-1,3-dihydro-isoindol-2-yl]-acetyl}-phenoxy)-acetic acid ethyl ester]"
7,182 to 183 °C,"C=CCOc1cc(OCC(=O)OCC)ccc1C(=O)CN1Cc2cc(C(=N)NO)ccc2C1=O (hydrate or solvate) [Example 83, (3-Allyloxy-4-{2-[5-(N-hydroxycarbamimidoyl)-1-oxo-1,3-dihydro-isoindol-2-yl]-acetyl}-phenoxy)-acetic acid ethyl ester]"
8,183 to 184 °C,"COC(=O)NC(=N)c1ccc2c(c1)CN(CC(=O)c1ccc(OCC(=O)OC(C)C)cc1)C2=O [Example 6, (4-{2-[5-(Imino-methoxycarbonylamino-methyl)-1-oxo-1,3-dihydro-isoindol-2-yl]-acetyl}-phenoxy)-acetic acid isopropyl ester]"
9,162 to 163 °C,"COC(=O)NC(=N)c1ccc2c(c1)CN(CC(=O)c1ccc(OCC(=O)OCC(C)C)cc1)C2=O [Example 11, (4-{2-[5-(Imino-methoxycarbonylamino-methyl)-1-oxo-1,3-dihydro-isoindol-2-yl]-acetyl}-phenoxy)-acetic acid isobutyl ester]"
10,139 to 140 °C,"CC(C)COC(=O)COc1ccc(C(=O)CN2Cc3cc(C(=N)NC(=O)OCc4ccccc4)ccc3C2=O)cc1 [Example 13, (4-{2-[5-(Benzyloxycarbonylamino-imino-methyl)-1-oxo-1,3-dihydro-isoindol-2-yl]-acetyl}-phenoxy)-acetic acid isobutyl ester]"
11,177 to 178 °C,"CC(C)COC(=O)COc1ccc(C(=O)CN2Cc3cc(C(=N)NS(C)(=O)=O)ccc3C2=O)cc1 [Example 14, (4-{2-[5-(Imino-methanesulfonylamino-methyl)-1-oxo-1,3-dihydro-isoindol-2-yl]-acetyl}-phenoxy)-acetic acid isobutyl ester]"
12,153 to 154 °C,"CC(C)COC(=O)COc1ccc(C(=O)CN2Cc3cc(C(=N)NO)ccc3C2=O)cc1 [Example 15, (4-{2-[5-(N-Hydroxycarbamimidoyl)-1-oxo-1,3-dihydro-isoindol-2-yl]-acetyl}-phenoxy)-acetic acid isobutyl ester]"
13,163 to 164 °C,"CCOC(=O)COc1ccc(C(=O)CN2Cc3cc(C(=N)NO)ccc3C2=O)cc1OCC(=O)OCC [Example 21, (2-Ethoxycarbonylmethoxy-4-{2-[5-(N-hydroxycarbamimidoyl)-1-oxo-1,3-dihydro-isoindol-2-yl]-acetyl}-phenoxy)-acetic acid ethyl ester]"
14,174 to 175 °C,"CCOC(=O)C(CCNC(=O)OCc1ccccc1)Oc1ccc(C(=O)CN2Cc3cc(C(=N)NO)ccc3C2=O)cc1 (centres unmarked) [Example 28, 4-Benzyloxycarbonylamino-2-(4-{2-[5-(N-hydroxycarbamimidoyl)-1-oxo-1,3-dihydro-isoindol-2-yl]-acetyl}-phenoxy)-butyric acid ethyl ester]"
15,193 to 194 °C,"COC(=O)CSc1ccc(C(=O)CN2Cc3cc(C(=N)NO)ccc3C2=O)cc1 [Example 29, (4-{2-[5-(N-Hydroxycarbamimidoyl)-1-oxo-1,3-dihydro-isoindol-2-yl]-acetyl}-phenylsulfanyl)-acetic acid methyl ester]"
16,201 to 202 °C,"CCOC(=O)COc1ccc(C(=O)CN2Cc3cc(C(=N)NO)ccc3C2=O)cc1Cl [Example 32, (2-Chloro-4-{2-[5-(N-hydroxycarbamimidoyl)-1-oxo-1,3-dihydro-isoindol-2-yl]-acetyl}-phenoxy)-acetic acid ethyl ester]"
17,196 to 197 °C,"CCOC(=O)COc1ccc(C(=O)CN2Cc3cc(C(=N)NO)ccc3C2=O)cc1S(=O)(=O)CC [Example 36, (2-Ethanesulfonyl-4-{2-[5-(N-hydroxycarbamimidoyl)-1-oxo-1,3-dihydro-isoindol-2-yl]-acetyl}-phenoxy)-acetic acid ethyl ester]"
18,183 to 184 °C,"CCOC(=O)COc1c(SCC)cc(C(=O)CN2Cc3cc(C(=N)NO)ccc3C2=O)cc1SCC [Example 37, (2,6-Bis-ethylsulfanyl-4-{2-[5-(N-hydroxycarbamimidoyl)-1-oxo-1,3-dihydro-isoindol-2-yl]-acetyl}-phenoxy)-acetic acid ethyl ester]"
19,165 to 167 °C,"CCOC(=O)COc1ccc(C(=O)CN2Cc3cc(C(=N)NO)ccc3C2=O)cc1N(CC(=O)OCC)S(C)(=O)=O [Example 40, (2-{Ethoxycarbonylmethyl-methanesulfonyl-amino}-4-{2-[5-(N-hydroxycarbamimidoyl)-1-oxo-1,3-dihydro-isoindol-2-yl]-acetyl}-phenoxy)-acetic acid ethyl ester]"
20,183 to 184 °C,"N=C(NO)c1ccc2c(c1)CN(CC(=O)c1ccc(OCC(=O)OCc3ccccc3)cc1O)C2=O [Example 43, (3-Hydroxy-4-{2-[5-(N-hydroxycarbamimidoyl)-1-oxo-1,3-dihydro-isoindol-2-yl]-acetyl}-phenoxy)-acetic acid benzyl ester]"
21,163 to 165 °C,"CCOC(=O)COc1ccc(C(=O)CN2Cc3cc(C(=N)NO)ccc3C2=O)c(OC)c1 [Example 45, (4-{2-[5-(N-Hydroxycarbamimidoyl)-1-oxo-1,3-dihydro-isoindol-2-yl]-acetyl}-3-methoxy-phenoxy)-acetic acid ethyl ester]"
22,139 to 140 °C,"CCOC(=O)COc1ccc(C(=O)CN2Cc3cc(C(=N)NO)ccc3C2=O)c(OCC(=O)OCC)c1 [Example 48, (3-Ethoxycarbonylmethoxy-4-{2-[5-(N-hydroxycarbamimidoyl)-1-oxo-1,3-dihydro-isoindol-2-yl]-acetyl}-phenoxy)-acetic acid ethyl ester]"
23,218 to 219 °C,"CCOC(=O)COc1cc(O)c(C(=O)CN2Cc3cc(C(=N)NO)ccc3C2=O)cc1CC [Example 50, (2-Ethyl-5-hydroxy-4-{2-[5-(N-hydroxycarbamimidoyl)-1-oxo-1,3-dihydro-isoindol-2-yl]-acetyl}-phenoxy)-acetic acid ethyl ester]"
24,207 to 209 °C,"CCOC(=O)COc1cc(O)c(C(=O)CN2Cc3cc(C(=N)NO)ccc3C2=O)cc1C(C)C [Example 51, (5-Hydroxy-4-{2-[5-(N-hydroxycarbamimidoyl)-1-oxo-1,3-dihydro-isoindol-2-yl]-acetyl}-2-isopropyl-phenoxy)-acetic acid ethyl ester]"
25,177 to 178 °C,"CCOC(=O)COc1cc(O)c(C(=O)CN2Cc3cc(C(=N)NO)ccc3C2=O)cc1C(C)(C)C [Example 52, (2-tert-Butyl-5-hydroxy-4-{2-[5-(N-hydroxycarbamimidoyl)-1-oxo-1,3-dihydro-isoindol-2-yl]-acetyl}-phenoxy)-acetic acid ethyl ester]"
26,196 to 197 °C,"CCOC(=O)COc1ccc(C(=O)CN2Cc3cc(C(=N)NO)ccc3C2=O)c(O)c1CC [Example 57, (2-Ethyl-3-hydroxy-4-{2-[5-(N-hydroxycarbamimidoyl)-1-oxo-1,3-dihydro-isoindol-2-yl]-acetyl}-phenoxy)-acetic acid ethyl ester]"

row,SMILES,melting point
1,"CCOC(=O)COc1ccc(C(=O)CN2Cc3cc(C(=N)NC(=O)OCC(C)C)ccc3C2=O)cc1N(CC(=O)OCC)S(C)(=O)=O (hydrate or solvate) [Example 39, (2-{Ethoxycarbonylmethyl-methanesulfonyl-amino}-4-{2-[5-(imino-isobutoxycarbonylamino-methyl)-1-oxo-1,3-dihydro-isoindol-2-yl]-acetyl}-phenoxy)-acetic acid ethyl ester]",80 to 82 °C
2,"CCOC(=O)COC1CCN(C(=O)CN2Cc3cc(C(=N)NC(=O)OC(C)(C)C)ccc3C2=O)CC1 (hydrate or solvate) [Example 72, (1-{2-[5-(tert-Butoxycarbonylamino-imino-methyl)-1-oxo-1,3-dihydro-isoindol-2-yl]-acetyl}-piperidin-4-yloxy)-acetic acid ethyl ester]",83 to 85 °C
3,"CCOC(=O)COc1ccc(C(=O)CN2Cc3cc(C(=N)NC(=O)OCC(C)C)ccc3C2=O)cc1Cl [Example 31, (2-Chloro-4-{2-[5-(imino-isobutoxycarbonylamino-methyl)-1-oxo-1,3-dihydro-isoindol-2-yl]-acetyl}-phenoxy)-acetic acid ethyl ester]",178 to 179 °C
